Assay results reported in US10766869B2, “Triazoles for the treatment of demyelinating dieases” (Vertex Pharmaceuticals Incorporated, priority 2015, dated 2020).
Read-outs that look alike come from different tables or passages of the source.

Tested on: primary rat mixed cortical cells
Assay: In vitro myelination assay (MBP positive myelin strands, fold myelin pixels above background)
Format: cell-based
Conditions: Rattus norvegicus; for fold induction at 1 µM: 1.0 μM compound; for fold induction at 10 µM: 10.0 μM compound
How it was run: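 Read-out is total MBP-positive myelin strand pixels per well, detected by custom ridge-tracing software and reported as fold over untreated baseline. Primary P1 rat mixed cortical cells received compound (1.0 or 10.0 μM) for 14 days, with medium half-replaced on days 6 and 10. Standard deviation was taken across all replicates.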

[1] = relative to baseline of no added compound, read-out: Fold myelin pixels above background
[2] = read-out: Fold myelin pixels above background relative to baseline of no added compound
[3] = relative to baseline of no added compound, read-out: Fold myelin pixels above background, 1.0 μM
[4] = relative to baseline of no added compound, read-out: Fold myelin pixels above background, 10.0 μM

| SMILES | fold induction at 1 µM [1] | fold induction at 10 µM [1] | further results |
| --- | --- | --- | --- |
| Cc1cc(Nc2ncn(-c3cc(F)cc(F)c3)n2)cc(NC2CC2)c1 [Compound 448, N1-cyclopropyl-N3-[1-(3,5-difluorophenyl)-1,2,4-triazol-3-yl]-5-methyl-benzene-1,3-diamine] | 100 to 1000 | 1 to 10 |  |
| Cc1cc(Nc2ncn(-c3cc(F)cc(F)c3)n2)nc(OCC2CC2)c1 [Compound 980, 6-(cyclopropylmethoxy)-N-[1-(3,5-difluorophenyl)-1,2,4-triazol-3-yl]-4-methyl-pyridin-2-amine] |  |  | fold induction at 1 µM [2]: 1 to 10; fold induction at 10 µM [2]: 1 to 10 |
| Cc1cc(Nc2ncn(-c3cc(F)cc(F)c3)n2)cc(N2CC(O)(C(C)C)C2)c1 [Compound 518, 1-[3-[[1-(3,5-difluorophenyl)-1,2,4-triazol-3-yl]amino]-5-methyl-phenyl]-3-isopropyl-azetidin-3-ol] | 10 to 100 | 10 to 100 |  |
| Cc1cc(Nc2ncn(-c3cc(F)cc(F)c3)n2)cc(N2CC(N3C4CCC3COC4)C2)c1 [Compound 746, 1-(3,5-difluorophenyl)-N-[3-methyl-5-[3-(3-oxa-8-azabicyclo[3.2.1]octan-8-yl)azetidin-1-yl]phenyl]-1,2,4-triazol-3-amine] | 10 to 100 | 10 to 100 |  |
| COCC1CCN(c2cc(C)cc(Nc3ncn(-c4ccncn4)n3)c2)CC1 [Compound 464, N-[3-[4-(methoxymethyl)-1-piperidyl]-5-methyl-phenyl]-1-pyrimidin-4-yl-1,2,4-triazol-3-amine] | 10 to 100 | 100 to 1000 |  |
| Cc1cc(Nc2ncn(-c3cc(F)cc(F)c3)n2)cc(NC2CCN(C3COC3)C2)c1 (stereo not drawn) [Compound 472, N3-[1-(3,5-difluorophenyl)-1,2,4-triazol-3-yl]-5-methyl-N1-[1-(oxetan-3-yl)pyrrolidin-3-yl]benzene-1,3-diamine] | 100 to 1000 | ≤ 1 |  |
| COc1cc(Nc2ncn(-c3cccc(C(F)(F)F)c3)n2)cc(N2CCN(C3COC3)CC2)c1 [Compound 662, N-[3-methoxy-5-[4-(oxetan-3-yl)piperazin-1-yl]phenyl]-1-[3-(trifluoromethyl)phenyl]-1,2,4-triazol-3-amine] | 10 to 100 | ≤ 1 |  |
| Fc1cc(F)cc(-n2cnc(Nc3cc(C4CC4)nc(N4CC[C@@H](F)C4)c3)n2)c1 [Compound 105, 2-cyclopropyl-N-[1-(3,5-difluorophenyl)-1,2,4-triazol-3-yl]-6-[(3R)-3-fluoropyrrolidin-1-yl]pyridin-4-amine] |  |  | fold induction at 1 µM [3]: 100 to 1000; fold induction at 10 µM [4]: 1 to 10 |
| Cc1cc(Nc2ncn(-c3cc(F)cc(F)c3)n2)cc(N2CCNCC2)c1 [Compound 77, 1-(3,5-difluorophenyl)-N-(3-methyl-5-piperazin-1-yl-phenyl)-1,2,4-triazol-3-amine] |  |  | fold induction at 1 µM [3]: 100 to 1000; fold induction at 10 µM [4]: ≤ 1 |
| Fc1cncc(-n2cnc(Nc3cc(C4CC4)cc(N4CCN(C5COC5)CC4)c3)n2)c1 [Compound 339, N-[3-cyclopropyl-5-[4-(oxetan-3-yl)piperazin-1-yl]phenyl]-1-(5-fluoro-3-pyridyl)-1,2,4-triazol-3-amine] |  |  | fold induction at 1 µM [3]: 100 to 1000; fold induction at 10 µM [4]: 10 to 100 |
| Cc1cc(Nc2ncn(-c3cc(F)cc(F)c3)n2)cc(N2CCOC(CCO)C2)c1 (stereo not drawn) [Compound 958, 2-[4-[3-[[1-(3,5-difluorophenyl)-1,2,4-triazol-3-yl]amino]-5-methyl-phenyl]morpholin-2-yl]ethanol] |  |  | fold induction at 1 µM [2]: 10 to 100; fold induction at 10 µM [2]: ≤ 1 |
| Cc1cc(Nc2ncn(-c3cc(F)cc(F)c3)n2)cc(N2CCN(C3CC(F)(F)C3)CC2)c1 [Compound 453, N-[3-[4-(3,3-difluorocyclobutyl)piperazin-1-yl]-5-methyl-phenyl]-1-(3,5-difluorophenyl)-1,2,4-triazol-3-amine] | 10 to 100 | 1000 to 10000 |  |
